Structures can show the parent of a compound that is named as a salt. Where two headings read alike, the source gives them in different places.
Columns and labels:
AgOAR45B [1] = molecular target: T1, AgOAR45B (Anopheles gambiae, UniProt F5HJT6); assay type: cell-based; conditions: for IC50: read-out: IC 50 (antagonist), in the presence of 1 μM octopamine
Procedure: GloResponse™CRE-luc2P HEK293 reporter cell line (Promega) were maintained as adherent culture at 37°C, 5% CO2 in DMEM (Invitrogen) supplemented with 10% fetal calf serum (Atlanta), and […] hygromycin B. Transfection of cells was carried out using the Amaxa Nucleofector kit per the manufacturer’s instructions. […] Stable lines were created by applying […] G418 for three weeks. Stable clones of AgOAR45B expressing HEK293 reporter cells were created through two rounds of limiting dilution cloning.
Intracellular cAMP increase was monitored through a CRE-luc reporter construct in HEK293 cells (Promega). Stable cell lines were plated at a density of 4×10^4 cells per well in white 96-well assay plates (Corning, Cat. #3917). Cells were immediately treated with the various compounds, and returned to the incubator for four hours before being assayed. cAMP was quantified through luciferase production using the Dual-Glo luciferase assay kit (Promega) following the manufacturer’s instructions. Luciferase units were normalized to the cell number using the internal Rluc construct in the pF9A expression plasmid.

AgOAR45A = AgOAR45A (Anopheles gambiae, UniProt Q7PRZ8, DEL426-427); experiment: cell-based
Chain of AgOAR45A (Q7PRZ8 entry or part of it DEL426-427): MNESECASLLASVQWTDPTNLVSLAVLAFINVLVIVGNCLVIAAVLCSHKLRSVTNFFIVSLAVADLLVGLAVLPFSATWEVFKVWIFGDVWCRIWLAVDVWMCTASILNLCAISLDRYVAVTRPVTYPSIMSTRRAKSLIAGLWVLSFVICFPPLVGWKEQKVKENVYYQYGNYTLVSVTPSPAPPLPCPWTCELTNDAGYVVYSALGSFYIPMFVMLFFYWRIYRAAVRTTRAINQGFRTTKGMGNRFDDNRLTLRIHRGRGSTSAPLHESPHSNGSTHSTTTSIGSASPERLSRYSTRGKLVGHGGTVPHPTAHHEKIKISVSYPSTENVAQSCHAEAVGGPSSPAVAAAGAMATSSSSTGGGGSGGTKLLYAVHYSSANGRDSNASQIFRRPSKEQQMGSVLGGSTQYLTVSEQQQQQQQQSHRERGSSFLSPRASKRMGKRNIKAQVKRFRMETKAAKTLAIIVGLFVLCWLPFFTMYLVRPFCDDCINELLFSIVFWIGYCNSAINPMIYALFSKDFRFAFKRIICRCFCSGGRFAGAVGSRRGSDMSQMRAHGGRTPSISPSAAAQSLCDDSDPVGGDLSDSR

AgOAR45B [2] = molecular target: T1, AgOAR45B; experiment: 3H-Yohimbine competition radioligand binding assay on membranes; conditions: competition with 16 nM 3H-Yohimbine
Procedure: Cells in T75 flasks were washed with 10 ml of PBS, removed by scraping, centrifuged at 500 g, and then resuspended in 5 ml of lysis buffer, 50 mM Tris-Cl pH 7.4. Cells were incubated on ice for 10 min and homogenized with a Dounce homogenizer with 30 strokes. The homogenate and 5 ml wash with lysis buffer were then centrifuged at 23,000 g for 30 min at 4°C to pellet crude membranes. The resulting pellet was re-suspended in 50 mM Tris-Cl pH 7.4, 5 mM MgCl2, 0.5 mM EDTA pH 7.4 and quantified by micro BCA assay (Thermo).
Radioligand binding assays were carried out using ^3H-Yohimbine to determine binding affinity of the octopamine receptor with different compounds. Isolated membranes, 30 μg per well, were incubated in the presence of 16 nM ^3H-Yohimbine (American Radiolabeled Chemicals) in binding buffer, and various concentrations of compounds. The final reaction volume was […] per well in a 96-well assay plate. […] clonidine was used to determine non-specific binding in each experiment. After a two-hour incubation, membranes were collected and washed on filter mats, pretreated with 0.3% polyethylenimine (Sigma) using a Brandel 96-well harvester and counted in a Perkin Elmer Microbeta counter.

[3] = read-out: EC 50 (agonist), AgOAR45B, HEK293-CRE-Luc cells

T1 sequence (F5HJT6 entry or part of it): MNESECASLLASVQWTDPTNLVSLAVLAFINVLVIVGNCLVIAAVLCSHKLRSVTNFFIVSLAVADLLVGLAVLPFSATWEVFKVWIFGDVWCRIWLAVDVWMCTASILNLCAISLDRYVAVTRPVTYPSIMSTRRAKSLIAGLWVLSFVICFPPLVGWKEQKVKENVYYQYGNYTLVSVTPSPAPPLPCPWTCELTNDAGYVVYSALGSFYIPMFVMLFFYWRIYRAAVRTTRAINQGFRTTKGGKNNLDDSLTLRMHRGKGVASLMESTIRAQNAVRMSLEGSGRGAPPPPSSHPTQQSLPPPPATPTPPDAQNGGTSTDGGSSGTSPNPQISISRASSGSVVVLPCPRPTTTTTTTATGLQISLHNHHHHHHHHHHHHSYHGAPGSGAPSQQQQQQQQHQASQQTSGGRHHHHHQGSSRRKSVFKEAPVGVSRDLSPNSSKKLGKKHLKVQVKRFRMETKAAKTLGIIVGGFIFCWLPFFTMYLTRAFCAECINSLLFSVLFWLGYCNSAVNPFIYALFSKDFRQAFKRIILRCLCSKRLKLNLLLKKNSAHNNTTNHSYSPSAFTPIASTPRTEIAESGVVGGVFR

NCC(O)c1ccc(O)cc1 (racemic) [Octopamine, DL-octopamine]
EC50 (AgOAR45B [1]; Table 2, AgOAR45B reporter assay): 17 nM | EC50 (AgOAR45B [1]; [3]): 17 nM | EC50 (AgOAR45A): 53 nM | Ki (AgOAR45B [2]): 7700 nM

CN(C)CCCN1c2ccccc2Sc2ccc(Cl)cc21 [Chlorpromazine, chlorpromazine]
IC50 (AgOAR45B [1]; AgOAR45B): 9900 nM

Clc1cccc(Cl)c1N=C1NCCN1 [Clonidine, clonidine]
EC50 (AgOAR45B [1]; [3]): 0.24 nM | EC50 (AgOAR45A): 2 nM

NCCc1ccc(O)c(O)c1 [Dopamine, dopamine]
EC50 (AgOAR45B [1]; [3]): > 50000 nM | EC50 (AgOAR45A): > 50000 nM

CCN(CC)CCNC(=O)c1cc(Cl)c(N)cc1OC [Metaclopramide, Metoclopramide hydrochloride]
IC50 (AgOAR45B [1]; AgOAR45B): > 50000 nM

c1ccc2c(CC3=NCCN3)cccc2c1 [Naphazoline, naphazoline]
EC50 (AgOAR45B [1]; [3]): 0.23 nM | EC50 (AgOAR45A): 2.2 nM

Cc1ccc(N(CC2=NCCN2)c2cccc(O)c2)cc1 [Phentolamine, phentolamine]
EC50 (AgOAR45B [1]; [3]): 5.8 nM | EC50 (AgOAR45A): 10 nM

CC(CN1c2ccccc2Sc2ccccc21)N(C)C (stereo not drawn) [Promethazine, promethazine]
IC50 (AgOAR45B [1]; AgOAR45B): 2000 nM

NCCc1c[nH]c2ccc(O)cc12 [Serotonin, serotonin]
EC50 (AgOAR45B [1]; [3]): > 50000 nM | EC50 (AgOAR45A): > 50000 nM

c1ccc(CC2=NCCN2)cc1 [Tolazoline, tolazoline]
EC50 (AgOAR45B [1]; [3]): 5 nM | EC50 (AgOAR45A): 280 nM

NCCc1ccc(O)cc1 [Tyramine, tyramine]
EC50 (AgOAR45B [1]; [3]): 840 nM | EC50 (AgOAR45A): 4600 nM

From publication PMC4253978, “Characterization of the Anopheles gambiae octopamine receptor and discovery of potential agonists and antagonists using a combined computational-experimental approach” (Malaria Journal, 2014)
